Laboratory results from ChEMBL document CHEMBL1201862, “PubChem BioAssay data set” (2004).
Activity calls are given as the source filed them.

Legend:
Jurkat = experiment: blockers of NF-kB activation in T cells – Jurkat, luciferase reporter, luminescence, B- and T-cell, dose response (AID 489004); type: functional, cell-based; conditions: Homo sapiens;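 note: NF-kB luciferase reporter Jurkat cells stimulated with PMA plus ionomycin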
[1] = HEK-293T viability loss, compound-treated – cell-based, uHTS hits, cytotoxicity control for B/T-cell NF-kB inhibitor project, dose response (AID 489019); type: functional;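 note: IC50 reflects cytotoxicity as loss of cell viability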
Cytochrome P450 2D6 = Cytochrome P450 2D6 (Homo sapiens, UniProt P10635);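 note: CYP2D6 member of a cytochrome P450 panel assay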
Cytochrome P450 2D6, sequence (P10635 whole entry): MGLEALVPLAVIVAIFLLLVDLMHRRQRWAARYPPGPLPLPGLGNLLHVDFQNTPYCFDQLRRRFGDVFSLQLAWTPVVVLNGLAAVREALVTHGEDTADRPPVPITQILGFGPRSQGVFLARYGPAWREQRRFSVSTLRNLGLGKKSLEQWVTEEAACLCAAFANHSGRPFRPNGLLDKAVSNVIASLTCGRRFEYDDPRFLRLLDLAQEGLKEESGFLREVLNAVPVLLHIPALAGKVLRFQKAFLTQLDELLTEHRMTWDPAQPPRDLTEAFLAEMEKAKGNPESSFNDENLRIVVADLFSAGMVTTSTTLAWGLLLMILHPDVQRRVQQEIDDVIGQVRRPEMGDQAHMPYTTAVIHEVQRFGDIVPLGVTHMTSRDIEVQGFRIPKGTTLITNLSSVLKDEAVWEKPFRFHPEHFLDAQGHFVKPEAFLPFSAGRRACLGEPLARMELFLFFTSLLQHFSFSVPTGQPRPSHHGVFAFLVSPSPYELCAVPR

Phospholipase A2 = Phospholipase A2 (Homo sapiens, UniProt P04054); experiment: phospholipase A2 activity inhibition – biochemical, set 2, counter-screen for ATG4B inhibitor project, dose response (AID 588586); type: functional
Phospholipase A2, sequence (P04054 whole entry): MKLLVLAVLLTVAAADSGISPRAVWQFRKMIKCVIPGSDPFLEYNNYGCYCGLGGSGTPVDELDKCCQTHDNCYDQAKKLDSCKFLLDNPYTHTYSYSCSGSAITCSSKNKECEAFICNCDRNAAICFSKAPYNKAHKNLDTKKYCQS

[2] = target: T1, Corticotropin-releasing factor receptor 2/Corticotropin-releasing factor-binding protein (Homo sapiens, UniProt P24387+Q13324); experiment: activators of CRF receptor 2 with binding protein – uHTS hits, confirmation (AID 602473); type: functional; conditions: read-out: EC50_Mean
T1 sequence (Q13324 whole entry): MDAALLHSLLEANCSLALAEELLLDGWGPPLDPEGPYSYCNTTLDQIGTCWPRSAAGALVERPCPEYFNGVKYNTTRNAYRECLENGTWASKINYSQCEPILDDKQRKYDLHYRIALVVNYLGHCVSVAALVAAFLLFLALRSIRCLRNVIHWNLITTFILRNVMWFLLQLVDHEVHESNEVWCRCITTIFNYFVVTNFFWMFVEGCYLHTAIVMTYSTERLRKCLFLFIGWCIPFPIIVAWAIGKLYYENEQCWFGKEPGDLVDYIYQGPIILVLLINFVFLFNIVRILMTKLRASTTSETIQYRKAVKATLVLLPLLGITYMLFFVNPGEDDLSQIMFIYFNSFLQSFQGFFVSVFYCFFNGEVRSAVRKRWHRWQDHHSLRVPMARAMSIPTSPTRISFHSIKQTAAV
T1 sequence (P24387 whole entry): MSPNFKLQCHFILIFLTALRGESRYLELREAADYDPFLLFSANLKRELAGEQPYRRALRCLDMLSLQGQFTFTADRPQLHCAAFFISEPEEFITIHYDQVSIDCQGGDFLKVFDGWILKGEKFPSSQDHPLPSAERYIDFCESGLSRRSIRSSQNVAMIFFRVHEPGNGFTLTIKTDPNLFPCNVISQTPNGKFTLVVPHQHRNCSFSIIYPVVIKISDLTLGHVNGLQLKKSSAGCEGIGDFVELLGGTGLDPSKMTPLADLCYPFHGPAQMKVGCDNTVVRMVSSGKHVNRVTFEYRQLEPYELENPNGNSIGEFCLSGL

Cysteine protease ATG4B = target: T2, Cysteine protease ATG4B (Homo sapiens, UniProt Q9Y4P1); experiment: autophagin-1 cysteine protease inhibition – biochemical, fluorescence, set 2, dose response (AID 588584); type: functional
T2 sequence (Q9Y4P1 whole entry): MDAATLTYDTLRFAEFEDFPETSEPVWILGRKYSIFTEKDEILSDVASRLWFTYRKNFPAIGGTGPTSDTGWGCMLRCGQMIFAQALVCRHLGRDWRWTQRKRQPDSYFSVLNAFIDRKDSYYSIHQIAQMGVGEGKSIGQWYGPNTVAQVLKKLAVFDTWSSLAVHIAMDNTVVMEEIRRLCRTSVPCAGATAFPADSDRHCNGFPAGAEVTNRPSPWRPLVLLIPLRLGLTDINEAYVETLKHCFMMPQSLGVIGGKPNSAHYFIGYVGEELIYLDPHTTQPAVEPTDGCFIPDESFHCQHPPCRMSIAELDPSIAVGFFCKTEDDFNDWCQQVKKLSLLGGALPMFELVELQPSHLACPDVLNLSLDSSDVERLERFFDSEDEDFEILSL

[3] = target: T1, Corticotropin-releasing factor receptor 2/Corticotropin-releasing factor-binding protein; experiment: Dose Response confirmation of uHTS hits for small molecule antagonists of the CRF-binding protein and CRF-R2 receptor complex.; type: functional; conditions: read-out: IC50_Mean
Cytochrome P450 3A4 = Cytochrome P450 3A4 (Homo sapiens, UniProt P08684);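 note: CYP3A4 tested as one member of a cytochrome P450 panel screen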
Cytochrome P450 3A4, sequence (P08684 whole entry): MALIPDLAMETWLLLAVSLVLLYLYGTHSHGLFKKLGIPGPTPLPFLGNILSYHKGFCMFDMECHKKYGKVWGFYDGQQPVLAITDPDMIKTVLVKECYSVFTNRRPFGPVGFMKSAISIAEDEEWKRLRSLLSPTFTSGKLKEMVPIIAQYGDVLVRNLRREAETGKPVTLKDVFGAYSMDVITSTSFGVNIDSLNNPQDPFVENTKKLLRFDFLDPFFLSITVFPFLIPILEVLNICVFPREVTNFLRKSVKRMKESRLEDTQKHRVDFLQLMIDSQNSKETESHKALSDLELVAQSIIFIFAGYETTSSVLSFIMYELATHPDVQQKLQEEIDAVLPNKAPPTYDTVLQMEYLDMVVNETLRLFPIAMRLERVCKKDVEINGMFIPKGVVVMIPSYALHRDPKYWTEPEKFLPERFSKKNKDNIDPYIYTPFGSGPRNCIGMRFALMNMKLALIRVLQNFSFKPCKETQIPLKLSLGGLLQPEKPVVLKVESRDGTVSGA

[4] = target: Dual specificity protein phosphatase 3 (Homo sapiens, UniProt P51452); experiment: SAR VHR1 Fluorescent Assay for In Vitro dose response studies Set 3. [Related pubchem assays (depositor defined):AID1654, AID1661, AID1878]; type: functional
Dual specificity protein phosphatase 3, sequence (P51452 whole entry): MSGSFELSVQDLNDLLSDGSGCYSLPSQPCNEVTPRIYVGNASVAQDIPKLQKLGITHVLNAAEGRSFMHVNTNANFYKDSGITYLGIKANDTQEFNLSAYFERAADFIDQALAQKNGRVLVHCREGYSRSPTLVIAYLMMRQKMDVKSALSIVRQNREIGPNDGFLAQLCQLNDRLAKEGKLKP

[5] = MIN6 cell viability loss – mouse insulinoma, cytotoxicity control, dose response (AID 2122); type: functional;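 note: confirmatory high-throughput counterscreen run to flag cytotoxic compounds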
INS1 = experiment: INS-1E survival protection against cytokine death – cell-based, luminescence, retest, dose response (AID 449756); type: functional; conditions: Rattus norvegicus;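 note: cell death triggered by IL-1 beta plus TNF-alpha plus IFN-gamma mixture; protective hits raise ATP signal compared with cytokine alone wells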
[6] = Trypanosoma cruzi growth suppression in host cells – NIH3T3 host cells, beta-gal luminescence, confirmation (AID 2044); type: functional, cell-based;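 note: intracellular parasites grown in NIH/3T3 mouse fibroblasts as host cells; luminescent beta-galactosidase reporter signal from transgenic T. cruzi replicating inside host cells; inhibitors lower the luminescence signal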
[7] = reduction of Shn3 3'UTR-driven luciferase in osteoblasts – cell-based, Clone20 osteoblasts, firefly luciferase, cherry-picked, dose response (AID 624132); type: functional;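 note: firefly luciferase luminescence from reporter carrying the Shn3 3'UTR in osteoblasts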
HEK293 [8] = experiment: NOD2 signaling inhibitors in MDP-stimulated cells, cell-based, uHTS, luminescence (AID 2001); type: functional; conditions: Homo sapiens
[9] = non-specific 3'UTR reporter inhibition in Clone20-Shn3RL – cell-based, Renilla luciferase, cherry-picked, counter-screen for Shn3 inhibitor project, dose response (AID 624133); type: functional
HEK293 [10] = experiment: cells; type: functional, cell-based; conditions: Homo sapiens
[11] = NIH3T3 cell viability loss – ATP luminescence, mouse fibroblasts, counter-screen, dose response (AID 2010); type: functional, cell-based;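 note: cells exposed to compound for about 90 hours before reading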
HEK293 [12] = experiment: inhibition of NOD1-driven NF-kB reporter – cell-based, luminescence, uHTS, primary screen (AID 1578); type: functional; conditions: Homo sapiens
[13] = loss of viability in HepG2 cells – cell-based, CellTiter-Glo, cherry-picked, cytotoxicity control for Shn3 inhibitor project, dose response (AID 624134); type: functional
[14] = decrease of insulin promoter-GFP reporter – imaging, high-content screening, mouse beta cells (AID 1628); type: functional; conditions: MIN6
HEK293 [15] = experiment: cells; type: functional, cell-based; conditions: Homo sapiens; remark: listed apart in the source
[16] = target: SWI/SNF-related matrix-associated actin-dependent regulator of chromatin subfamily A member 2 (Homo sapiens, UniProt P51531); experiment: Luminescence-based cell-based high throughput dose response assay to identify activators of the function of SWI/SNF related, matrix associated, actin dependent regulator of chromatin, subfamily a, member 2 (SMARCA2, BRM).; type: functional
SWI/SNF-related matrix-associated actin-dependent regulator of chromatin subfamily A member 2, sequence (P51531 whole entry, the tested form may be a part): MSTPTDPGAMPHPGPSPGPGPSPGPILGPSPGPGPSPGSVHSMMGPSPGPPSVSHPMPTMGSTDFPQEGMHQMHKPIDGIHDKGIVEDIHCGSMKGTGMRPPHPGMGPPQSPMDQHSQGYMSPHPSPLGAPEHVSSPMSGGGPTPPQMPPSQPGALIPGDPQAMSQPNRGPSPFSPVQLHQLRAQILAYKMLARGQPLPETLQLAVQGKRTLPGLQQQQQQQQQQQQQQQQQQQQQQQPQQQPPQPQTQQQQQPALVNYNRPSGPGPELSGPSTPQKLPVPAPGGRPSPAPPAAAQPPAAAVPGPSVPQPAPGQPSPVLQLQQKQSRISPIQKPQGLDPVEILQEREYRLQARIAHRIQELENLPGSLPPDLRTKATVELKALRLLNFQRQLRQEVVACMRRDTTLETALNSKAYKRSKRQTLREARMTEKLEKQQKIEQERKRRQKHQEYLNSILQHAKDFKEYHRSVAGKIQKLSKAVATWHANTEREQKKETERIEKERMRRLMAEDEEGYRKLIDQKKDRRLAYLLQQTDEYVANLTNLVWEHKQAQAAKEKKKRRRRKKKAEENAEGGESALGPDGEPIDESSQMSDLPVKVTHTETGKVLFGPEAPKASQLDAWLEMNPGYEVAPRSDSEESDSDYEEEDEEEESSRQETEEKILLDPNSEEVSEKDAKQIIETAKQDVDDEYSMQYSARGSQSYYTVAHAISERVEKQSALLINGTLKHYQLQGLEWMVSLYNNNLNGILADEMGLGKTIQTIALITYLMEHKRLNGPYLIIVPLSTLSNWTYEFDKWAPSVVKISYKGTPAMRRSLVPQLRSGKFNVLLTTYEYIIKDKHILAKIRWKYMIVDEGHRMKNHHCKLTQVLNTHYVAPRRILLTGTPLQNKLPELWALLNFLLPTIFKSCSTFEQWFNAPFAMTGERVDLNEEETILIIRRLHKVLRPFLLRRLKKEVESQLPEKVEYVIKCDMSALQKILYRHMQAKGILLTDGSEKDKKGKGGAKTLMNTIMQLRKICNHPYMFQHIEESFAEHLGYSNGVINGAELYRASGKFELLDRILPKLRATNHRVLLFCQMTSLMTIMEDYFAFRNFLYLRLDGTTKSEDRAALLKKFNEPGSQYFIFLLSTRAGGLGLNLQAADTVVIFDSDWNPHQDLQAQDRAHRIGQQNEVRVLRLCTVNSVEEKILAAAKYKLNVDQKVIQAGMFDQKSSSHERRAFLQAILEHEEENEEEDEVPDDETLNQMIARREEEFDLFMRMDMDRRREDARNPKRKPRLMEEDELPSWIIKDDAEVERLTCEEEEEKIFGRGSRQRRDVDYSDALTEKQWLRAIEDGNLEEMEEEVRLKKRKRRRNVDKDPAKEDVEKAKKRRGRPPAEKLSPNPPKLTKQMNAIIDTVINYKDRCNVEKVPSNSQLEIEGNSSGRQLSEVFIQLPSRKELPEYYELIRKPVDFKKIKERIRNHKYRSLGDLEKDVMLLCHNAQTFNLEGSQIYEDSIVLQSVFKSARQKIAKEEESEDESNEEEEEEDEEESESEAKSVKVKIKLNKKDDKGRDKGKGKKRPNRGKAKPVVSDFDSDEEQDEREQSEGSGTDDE

[17] = inhibition of ARNT PAS-B/TACC3 complex formation – biochemical, AlphaScreen, cherry-picked samples, confirmation (AID 651703); type: functional, Homo sapiens;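 note: His-tagged ARNT PAS-B domain paired with GST-TACC3 E629A dimer coactivator fragment; potency of inhibitors that break up the complex and lower AlphaScreen signal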
[18] = Counterscreen for activators of the function of SWI/SNF related, matrix associated, actin dependent regulator of chromatin, subfamily a, member 2 (SMARCA2, BRM): Luminescence-based cell-based high throughput dose response assay to identify non-selective compounds using the VP16 reporter assay.; type: functional
Keap1/Nrf2 = Keap1/Nrf2 (Homo sapiens, UniProt Q14145); experiment: disruptors of Keap1 binding to Nrf2 peptide – biochemical, fluorescence polarization, cherry-picked samples, dose response (AID 588683)
Keap1/Nrf2, sequence (Q16236 whole entry): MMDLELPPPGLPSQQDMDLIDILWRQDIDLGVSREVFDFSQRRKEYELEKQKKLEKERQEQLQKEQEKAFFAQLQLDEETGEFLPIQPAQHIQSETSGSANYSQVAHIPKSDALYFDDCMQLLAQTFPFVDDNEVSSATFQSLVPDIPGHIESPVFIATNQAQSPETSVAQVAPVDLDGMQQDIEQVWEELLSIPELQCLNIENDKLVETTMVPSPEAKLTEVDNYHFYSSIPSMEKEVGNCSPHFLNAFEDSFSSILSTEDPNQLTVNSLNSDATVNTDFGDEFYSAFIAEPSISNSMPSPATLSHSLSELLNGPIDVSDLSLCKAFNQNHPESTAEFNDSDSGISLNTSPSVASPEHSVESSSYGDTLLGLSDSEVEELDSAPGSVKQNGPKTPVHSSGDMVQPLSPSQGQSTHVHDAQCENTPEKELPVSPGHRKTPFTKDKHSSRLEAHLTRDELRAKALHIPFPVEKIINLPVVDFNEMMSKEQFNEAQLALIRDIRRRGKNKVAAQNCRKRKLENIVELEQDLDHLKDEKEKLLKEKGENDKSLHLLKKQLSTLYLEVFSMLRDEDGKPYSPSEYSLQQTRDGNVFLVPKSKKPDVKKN
Keap1/Nrf2, sequence (Q14145 whole entry): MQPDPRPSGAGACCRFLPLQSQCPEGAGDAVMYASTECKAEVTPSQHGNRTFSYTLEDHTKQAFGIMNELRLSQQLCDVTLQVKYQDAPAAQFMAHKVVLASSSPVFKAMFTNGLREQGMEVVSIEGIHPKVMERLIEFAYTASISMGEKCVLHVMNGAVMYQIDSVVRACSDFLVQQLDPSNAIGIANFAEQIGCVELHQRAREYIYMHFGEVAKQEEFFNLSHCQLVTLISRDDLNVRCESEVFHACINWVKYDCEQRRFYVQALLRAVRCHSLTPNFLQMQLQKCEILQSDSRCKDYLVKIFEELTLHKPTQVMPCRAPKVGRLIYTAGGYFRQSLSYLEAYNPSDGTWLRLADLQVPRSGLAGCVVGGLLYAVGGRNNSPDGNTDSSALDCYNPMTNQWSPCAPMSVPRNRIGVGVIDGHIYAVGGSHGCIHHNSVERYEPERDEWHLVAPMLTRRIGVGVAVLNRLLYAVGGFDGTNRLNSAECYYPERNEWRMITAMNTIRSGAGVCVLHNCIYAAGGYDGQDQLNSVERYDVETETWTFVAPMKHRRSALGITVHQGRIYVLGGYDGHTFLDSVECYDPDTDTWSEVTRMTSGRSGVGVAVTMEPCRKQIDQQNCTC

ORF 73 = ORF 73 (Human herpesvirus 8, UniProt O40947); experiment: KSHV LANA DNA-binding disruption – biochemical, fluorescence polarization, cherry-picked samples, dose response (AID 504725); design: species or system Human gammaherpesvirus 8;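 note: fluorescence polarization of a labeled DNA duplex reporting LANA DNA binding; potency is for inhibitors that block LANA binding to the DNA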
HEK293 [19] = experiment: cells; conditions: Homo sapiens
[20] = target: T3, Rac GTPase-activating protein 1 (Homo sapiens, UniProt Q9H0H5); experiment: blockers of MgcRacGAP-driven Rac1 GTP hydrolysis – biochemical, ADP Hunter fluorescence, primary and confirmatory, confirmation (AID 624330); type: functional
T3 sequence (Q9H0H5 whole entry): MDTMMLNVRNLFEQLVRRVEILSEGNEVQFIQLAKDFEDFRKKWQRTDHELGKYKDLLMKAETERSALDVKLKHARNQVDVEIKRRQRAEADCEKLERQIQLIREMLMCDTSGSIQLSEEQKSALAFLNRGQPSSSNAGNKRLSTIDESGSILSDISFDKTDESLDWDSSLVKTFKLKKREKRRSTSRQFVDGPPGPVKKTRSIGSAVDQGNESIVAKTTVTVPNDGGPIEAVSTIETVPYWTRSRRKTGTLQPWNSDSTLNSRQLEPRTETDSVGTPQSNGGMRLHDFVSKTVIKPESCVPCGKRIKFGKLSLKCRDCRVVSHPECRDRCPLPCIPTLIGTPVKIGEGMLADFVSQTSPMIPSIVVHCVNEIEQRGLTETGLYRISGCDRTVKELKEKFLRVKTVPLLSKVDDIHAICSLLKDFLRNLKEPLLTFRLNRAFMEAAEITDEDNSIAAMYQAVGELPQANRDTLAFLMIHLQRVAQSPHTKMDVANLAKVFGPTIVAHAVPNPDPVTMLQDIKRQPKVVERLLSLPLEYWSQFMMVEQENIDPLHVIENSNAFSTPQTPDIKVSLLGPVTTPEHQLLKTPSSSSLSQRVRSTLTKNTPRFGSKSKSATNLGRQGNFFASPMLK

[21] = viability loss in HeLa cells – cytotoxicity control for MgcRacGAP inhibitor project, dose response (AID 624300); type: functional
HeLa = experiment: viability loss in HeLa cells – cell-based, 24 h, cherry-picked samples, cytotoxicity control, dose response (AID 504726); type: functional; conditions: Homo sapiens;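 note: potency for cytotoxicity as loss of luminescence signal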
HEK293 [22] = experiment: cells; conditions: Homo sapiens; remark: listed apart in the source
[23] = Luminescence Cell-Based Secondary HTS screen to identify cytotoxic compounds of NIH3T3 cells. [Related pubchem assays: 1885, 1968 ]; type: functional
[24] = Luminescence Cell-Based/Microorganism Confirmation at Dose of Inhibitors of Trypanosoma cruzi Infection. [Related pubchem assays: 1885, 1968 ]; type: functional
[25] = T. cruzi infection blockers in NIH3T3 cells – beta-gal luminescence, NIH3T3 host cells, confirmation (AID 2630); type: functional, cell-based; conditions: Mus musculus
[26] = target: Dual specificity protein phosphatase 6 (Rattus norvegicus, UniProt Q64346); type: functional;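 note: confirmatory in vitro dose-response testing of MKP-3 inhibition; recombinant His-tagged MKP-3 made in E. coli BL21 with OMFP substrate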
Dual specificity protein phosphatase 6, sequence (Q64346 whole entry): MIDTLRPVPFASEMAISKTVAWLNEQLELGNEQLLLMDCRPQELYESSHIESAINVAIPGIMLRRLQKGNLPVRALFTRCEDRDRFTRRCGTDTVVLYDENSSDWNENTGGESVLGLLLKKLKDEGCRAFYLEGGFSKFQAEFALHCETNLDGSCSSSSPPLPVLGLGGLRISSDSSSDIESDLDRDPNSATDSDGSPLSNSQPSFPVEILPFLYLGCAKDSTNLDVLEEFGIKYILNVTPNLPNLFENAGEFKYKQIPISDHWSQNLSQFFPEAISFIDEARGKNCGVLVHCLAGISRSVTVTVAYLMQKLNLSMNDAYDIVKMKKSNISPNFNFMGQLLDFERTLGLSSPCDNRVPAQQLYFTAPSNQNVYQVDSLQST

[27] = target: T4, Tyrosine-protein phosphatase non-receptor type 7 (Homo sapiens, UniProt P35236); experiment: redox-active compounds inhibiting HePTP phosphatase – biochemical, fluorescence, mechanism study (AID 2068); type: functional
T4 sequence (P35236 whole entry): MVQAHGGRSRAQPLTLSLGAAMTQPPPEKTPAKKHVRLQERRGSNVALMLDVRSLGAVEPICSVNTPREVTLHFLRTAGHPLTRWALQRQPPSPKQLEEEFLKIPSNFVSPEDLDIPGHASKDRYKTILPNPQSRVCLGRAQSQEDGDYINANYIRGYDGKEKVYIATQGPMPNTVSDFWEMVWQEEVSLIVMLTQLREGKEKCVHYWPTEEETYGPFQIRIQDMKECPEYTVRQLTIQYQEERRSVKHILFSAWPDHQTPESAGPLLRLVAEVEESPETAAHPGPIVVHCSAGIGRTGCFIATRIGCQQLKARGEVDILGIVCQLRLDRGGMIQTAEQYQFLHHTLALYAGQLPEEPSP

CCCCCNC(=O)c1ccc2c(=O)n(CC3CCCO3)c(=O)[nH]c2c1 (stereo unspecified)
IC50 (Jurkat): > 80 µM (inactive)
IC50 [1]: > 80 µM (inactive)

CCOc1ccc(C(=O)Nc2cnn(Cc3ccc(Cl)c(Cl)c3)c2)cc1
AC50 (Cytochrome P450 2D6): 15.8 µM (inconclusive)
IC50 (Phospholipase A2): 79.1 µM (inactive)
EC50 [2]: > 53 µM (inactive)
IC50 (Cysteine protease ATG4B): 68.1 µM (inactive)
IC50 [3]: > 47.1 µM (inactive)
AC50 (Cytochrome P450 3A4): 22.4 µM (inconclusive)

COc1cccc2sc(NC(=O)c3ccc(C(=O)c4ccccc4)cc3)nc12
IC50 [4]: > 66 µM (inactive)

COc1ccc(CC2(CO)CCN(CC3=Cc4cc(Cl)ccc4OC3)CC2)cc1
IC50 [5]: 1.28 µM (active)
AC50 (INS1): 3.28 µM (active)
EC50 [6]: 1.68 µM (active)
AC50 [7]: 1.33 µM (active)
IC50 (HEK293 [8]): 4.31 µM (active)
AC50 [9]: 7.74 µM (active)
IC50 (HEK293 [10]): 3.77 µM (active)
EC50 [11]: > 60 µM (inconclusive)
EC50 (HEK293 [12]): 5.44 µM (active)
AC50 [13]: 7.73 µM (active)
IC50 [14]: 1.79 µM (active)
IC50 (HEK293 [15]): 8.64 µM (active)

CN(C)CCNc1ccc2ncn3c4ccc(O)cc4c(=O)c1c23
EC50 [16]: 11.5 µM (inactive)
AC50 [17]: 89 µM (active)
EC50 [18]: > 91.1 µM (inactive)
AC50 (Keap1/Nrf2): 3.79 µM (active)
AC50 (ORF 73): 6.38 µM (active)
EC50 (HEK293 [19]): > 59.6 µM (inactive)
IC50 [20]: 46.8 µM (active)
CC50 [21]: 49.2 µM (active)
AC50 (HeLa): 11.5 µM (active)
EC50 (HEK293 [22]): > 6.62 µM (active)

COc1ccccc1/C=C/C(=O)OCCCN(C)C
EC50 [23]: > 195 µM (not active)
EC50 [24]: 2.52 µM (active)
EC50 [25]: 2.52 µM (active)

CCN(CC)C(=O)c1cn(CCOc2ccccc2)c2ccccc12
IC50 [26]: > 100 µM (inactive)
IC50 [27]: 1.38 µM (active)
